Measurements taken from US20240116985A1, “STAPLED PEPTIDES AND METHODS THEREOF” (priority 2020, published 2024).

These compounds were tested against T1, full-length beta-Catenin (Uniprot ID P35222) (Homo sapiens, UniProt P35222) (assay: Fluorescence polarization IC50 (beta-catenin / 5FAM-TCF4 10-53 competition)). Conditions: beta-Catenin FP IC50, fluorescence polarization.
T1 construct: 10 nM full-length beta-Catenin (Uniprot ID P35222)
T1 sequence (P35222 1-781): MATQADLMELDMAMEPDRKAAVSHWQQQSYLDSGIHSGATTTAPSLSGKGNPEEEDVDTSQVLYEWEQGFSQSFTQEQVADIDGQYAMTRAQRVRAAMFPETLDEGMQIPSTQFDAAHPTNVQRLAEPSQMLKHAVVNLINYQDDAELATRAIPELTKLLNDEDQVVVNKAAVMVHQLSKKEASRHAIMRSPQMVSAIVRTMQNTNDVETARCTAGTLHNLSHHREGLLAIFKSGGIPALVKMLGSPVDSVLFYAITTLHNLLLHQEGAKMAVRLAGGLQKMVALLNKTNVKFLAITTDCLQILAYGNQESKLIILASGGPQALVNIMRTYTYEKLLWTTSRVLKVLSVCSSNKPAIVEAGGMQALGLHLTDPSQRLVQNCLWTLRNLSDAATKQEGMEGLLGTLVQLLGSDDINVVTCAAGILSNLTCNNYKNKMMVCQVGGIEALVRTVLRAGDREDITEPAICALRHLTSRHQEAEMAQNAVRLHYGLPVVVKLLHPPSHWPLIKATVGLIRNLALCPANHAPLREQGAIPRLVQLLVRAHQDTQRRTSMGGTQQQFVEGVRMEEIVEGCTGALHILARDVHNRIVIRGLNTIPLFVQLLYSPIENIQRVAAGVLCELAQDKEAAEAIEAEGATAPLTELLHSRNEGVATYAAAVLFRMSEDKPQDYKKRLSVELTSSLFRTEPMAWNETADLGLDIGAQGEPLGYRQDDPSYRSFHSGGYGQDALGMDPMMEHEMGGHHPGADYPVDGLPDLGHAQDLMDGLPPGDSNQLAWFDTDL
Format: binding

Row | SMILES | IC50 [nM]
1 | CC(=O)N1CCC[C@]12CC=CCCCC1(CCCC=CCCCOC(=O)N3CC[C@@](C(=O)N[C@@H](Cc4ccccc4Cl)C(=O)N[C@@H](Cc4csc5ccccc45)C(=O)N[C@@H](CC(C)C)C(N)=O)(C3)NC(=O)[C@H](CC(C)C)NC(=O)[C@H](Cc3ccccc3)NC(=O)[C@H](C)NC(=O)[C@H](C)NC(=O)[C@H](CC(=O)O)NC(=O)[C@H](CC(=O)O)NC1=O)NC(=O)[C@H](CO)NC(=O)[C@H](CC(=O)O)NC2=O (stereo partly drawn) [I-1423, Ac-PL3-Asp-Ser-B5-Asp-Asp-Ala-Ala-Phe-Leu-PyrS2-2C1F-BztA-Leu-NH2] | 389

Same assay, conditions: fluorescence polarization; read-out: beta-Catenin FP IC50

Row | SMILES | IC50 [nM]
2 | CC(=O)N1CCC[C@]12CC=CCCCC1(CCCC=CCCCOC(=O)N3CC[C@@](C(=O)N[C@@H](Cc4cccc(-c5ccccc5)c4)C(=O)N[C@@H](Cc4ccccc4C(F)(F)F)C(=O)N[C@@H](CCC(N)=O)C(N)=O)(C3)NC(=O)[C@H](CC(C)C)NC(=O)[C@H](Cc3ccccc3)NC(=O)[C@H](C)NC(=O)[C@H](C)NC(=O)[C@H](Cc3cccc(C(=O)O)c3)NC(=O)[C@H](CC(=O)O)NC1=O)NC(=O)[C@H](CC(C)(C)C)NC(=O)[C@H](CC(=O)O)NC2=O (stereo partly drawn) [I-2256, Ac-PL3-Asp-Npg-B5-Asp-3COOHF-Ala-Ala-Phe-Leu-PyrS2-[Ph]3SF-2F3MeF-Gln-NH2] | 8410
3 | CC(=O)N1CCC[C@]12CC=CCCCC1(CCCC=CCCCOC(=O)N3CC[C@@](C(=O)N[C@@H](Cc4cccc(-c5ccccc5)c4)C(=O)N[C@@H](Cc4ccccc4)C(=O)N[C@@H](CCC(N)=O)C(N)=O)(C3)NC(=O)[C@H](CC(C)C)NC(=O)[C@H](Cc3ccccc3)NC(=O)[C@H](C)NC(=O)[C@H](C)NC(=O)[C@H](Cc3cccc(C(=O)O)c3)NC(=O)[C@H](CC(=O)O)NC1=O)NC(=O)[C@H](CC(C)(C)C)NC(=O)[C@H](CC(=O)O)NC2=O (stereo partly drawn) [I-2214, Ac-PL3-Asp-Npg-B5-Asp-3COOHF-Ala-Ala-Phe-Leu-PyrS2-[Ph]-3SF-Phe-Gln-NH2] | 1860
4 | CC(=O)N1CCC[C@]12CCCCCCC1(CCCCCCCCOC(=O)N3CC[C@@](C(=O)N[C@@H](Cc4ccsc4)C(=O)N[C@@H](Cc4csc5ccccc45)C(=O)N[C@@H](CC(N)=O)C(N)=O)(C3)NC(=O)[C@H](CC(C)C)NC(=O)[C@H](Cc3ccccc3)NC(=O)[C@H](C)NC(=O)[C@H](C)NC(=O)[C@H](CN(CC(=O)O)CC(F)(F)F)NC(=O)[C@H](CC(=O)O)NC1=O)NC(=O)[C@H](CC(C)(C)C)NC(=O)[C@H](CC(=O)O)NC2=O (stereo partly drawn) [I-1715, Ac-PL3-Asp-Npg-B5-Asp-TfeGA-Ala-Ala-Phe-Leu-PyrS2-3Thi-BztA-Asn-NH2] | 95
5 | CC(=O)N1CCC[C@]12CC=CCCCC1(CCCC=CCCCOC(=O)N3CC[C@@](C(=O)N[C@@H](Cc4ccsc4)C(=O)N[C@@H](Cc4csc5ccccc45)C(=O)N[C@@H](CCC(N)=O)C(N)=O)(C3)NC(=O)[C@H](CC(N)=O)NC(=O)[C@H](Cc3ccccc3N)NC(=O)[C@H](C)NC(=O)[C@H](C)NC(=O)[C@H](CC(=O)O)NC(=O)[C@H](CC(=O)O)NC1=O)NC(=O)[C@H](CC(C)(C)C)NC(=O)[C@H](CC(=O)O)NC2=O (stereo partly drawn) [I-1728, Ac-PL3-Asp-Npg-B5-Asp-Asp-Ala-Ala-2NH2F-Asn-PyrS2-3Thi-BztA-Gln-NH2] | 14
6 | CC(=O)N1CCC[C@]12CC=CCCCC1(CCCC=CCCCOC(=O)N3CC[C@@](C(=O)N[C@@H](Cc4ccsc4)C(=O)N[C@@H](Cc4cn(C)c5ccccc45)C(=O)N[C@@H](CO)C(N)=O)(C3)NC(=O)[C@H](CC(C)C)NC(=O)[C@H](Cc3ccccc3)NC(=O)[C@H](C)NC(=O)[C@H](C)NC(=O)[C@H](CC(=O)O)NC(=O)[C@H](CC(=O)O)NC1=O)NC(=O)[C@H](CC(C)(C)C)NC(=O)[C@H](CC(=O)O)NC2=O (stereo partly drawn) [I-1434, Ac-PL3-Asp-Npg-B5-Asp-Asp-Ala-Ala-Phe-Leu-PyrS2-3Thi-1MeW-Ser-NH2] | 83
7 | CC(=O)N1CCC[C@]12CC=CCCCC1(CCCC=CCCCOC(=O)N3CC[C@@](C(=O)N[C@@H](Cc4ccsc4)C(=O)N[C@@H](Cc4csc5ccccc45)C(=O)N[C@@H](CCC(N)=O)C(N)=O)(C3)NC(=O)[C@H](CC(N)=O)NC(=O)[C@H](Cc3cccc(Cl)c3)NC(=O)[C@H](C)NC(=O)[C@H](C)NC(=O)[C@H]([C@@H](C)O)NC(=O)[C@H](CC(N)=O)NC1=O)NC(=O)[C@H](CC(C)(C)C)NC(=O)[C@H](CC(=O)O)NC2=O (stereo partly drawn) [I-2014, Ac-PL3-Asp-Npg-B5-Asn-Thr-Ala-Ala-3C1F-Asn-PyrS2-3Thi-BztA-Gln-NH2] | 1180
8 | CC(=O)N1CCC[C@]12CC=CCCCC1(CCCC=CCCCOC(=O)N3CC[C@@](C(=O)N[C@@H](Cc4ccsc4)C(=O)N[C@@H](Cc4csc5ccccc45)C(=O)N[C@@H](Cc4ccccc4)C(N)=O)(C3)NC(=O)[C@H](CC(C)C)NC(=O)[C@H](Cc3ccccc3)NC(=O)[C@H](C)NC(=O)[C@H](Cc3c[nH]cn3)NC(=O)[C@H](Cc3cccc(C(=O)O)c3)NC(=O)[C@H](CC(=O)O)NC1=O)NC(=O)[C@H](CC(C)(C)C)NC(=O)[C@H](CC(=O)O)NC2=O (stereo partly drawn) [I-1910, Ac-PL3-Asp-Npg-B5-Asp-3COOHF-His-Ala-Phe-Leu-PyrS2-3Thi-BztA-Phe-NH2] | 17
9 | CC(=O)N1CCC[C@]12CC=CCCCC1(CCCC=CCCCOC(=O)N3CC[C@@](C(=O)N[C@@H](Cc4ccsc4)C(=O)N[C@@H](Cc4csc5ccccc45)C(=O)N[C@@H](CCC(N)=O)C(N)=O)(C3)NC(=O)[C@H](CCC(=O)N3CCC(N4CCN(C)CC4)CC3)NC(=O)[C@H](Cc3ccccc3)NC(=O)[C@H](C)NC(=O)[C@H](C)NC(=O)[C@H](CN(CC(=O)O)CC(F)(F)F)NC(=O)[C@H](CC(=O)O)NC1=O)NC(=O)[C@H](CC(C)(C)C)NC(=O)[C@H](CC(=O)O)NC2=O (stereo partly drawn) [I-1937, Ac-PL3-Asp-Npg-B5-Asp-TfeGA-Ala-Ala-Phe-[4MePpzPip]GlnR-PyrS2-3Thi-BztA-Gln-NH2] | 9

Other lines, results leading:

Row | IC50 [nM] | SMILES
10 | 1200 | CC(=O)N1CCC[C@]12CC=CCCCC1(CCCC=CCCCOC(=O)N3CC[C@](C(=O)N[C@@H](Cc4ccsc4)C(=O)N[C@@H](Cc4csc5ccccc45)C(=O)N[C@@H](CCC(N)=O)C(N)=O)(C3)NC(=O)[C@H](CC(C)C)NC(=O)[C@H](Cc3ccccc3)NC(=O)[C@H](C)NC(=O)[C@H](C)NC(=O)[C@H](CC(=O)O)NC(=O)[C@H](CC(=O)O)NC1=O)NC(=O)[C@H](CC(C)(C)C)NC(=O)[C@H](CC(=O)O)NC2=O (stereo partly drawn) [I-2020, Ac-PL3-Asp-Npg-B5-Asp-Asp-Ala-Ala-Phe-Leu-PyrR2-3Thi-BztA-Gln-NH2]
11 | 687 | CC(=O)N1CCC[C@]12CC=CCCCCC1(CCCCC=CCOC(=O)N3CC[C@@](C(=O)N[C@@H](Cc4ccccc4C(F)(F)F)C(=O)N[C@@H](Cc4csc5ccccc45)C(=O)N[C@@H](CCC(N)=O)C(N)=O)(C3)NC(=O)[C@H](CC(C)C)NC(=O)[C@H](Cc3ccccc3)NC(=O)[C@H](C)NC(=O)[C@H](C)NC(=O)[C@H](Cc3cccc(C(=O)O)c3)NC(=O)[C@H](CC(=O)O)NC1=O)NC(=O)[C@H](CC(C)(C)C)NC(=O)[C@H](CC(=O)O)NC2=O (stereo partly drawn) [I-2505, Ac-PL3-Asp-Npg-B6-Asp-3COOHF-Ala-Ala-Phe-Leu-PyrS-2F3MeF-BztA-Gln-NH2]
12 | 5790 | CC(=O)N1CCC[C@]12CC=CCCCC1(CCCC=CCCCOC(=O)N3CC[C@@](C(=O)N[C@@H](Cc4cccc(-c5ccccc5)c4)C(=O)N[C@@H](Cc4ccsc4)C(=O)N[C@@H](CCC(N)=O)C(N)=O)(C3)NC(=O)[C@H](CC(C)C)NC(=O)[C@H](Cc3ccccc3)NC(=O)[C@H](C)NC(=O)[C@H](C)NC(=O)[C@H](Cc3cccc(C(=O)O)c3)NC(=O)[C@H](CC(=O)O)NC1=O)NC(=O)[C@H](CC(C)(C)C)NC(=O)[C@H](CC(=O)O)NC2=O (stereo partly drawn) [I-2254, Ac-PL3-Asp-Npg-B5-Asp-3COOHF-Ala-Ala-Phe-Leu-PyrS2-[Ph]3SF-3Thi-Gln-NH2]
13 | 592 | CC(=O)N1CCC[C@]12CC=CCCCC1(CCCC=CCCCOC(=O)N3CC[C@@](C(=O)N[C@@H](Cc4cscn4)C(=O)N[C@@H](Cc4csc5ccccc45)C(=O)N[C@@H](CCO)C(N)=O)(C3)NC(=O)[C@H](CC(N)=O)NC(=O)[C@H](Cc3ccccc3)NC(=O)[C@H](C)NC(=O)[C@H](CCCCNC(C)C)NC(=O)[C@H](CCC(N)=O)NC(=O)[C@H](CC(=O)O)NC1=O)NC(=O)[C@H](CC1CCCCC1)NC(=O)[C@H](CC(N)=O)NC2=O (stereo partly drawn) [I-2071, Ac-PL3-Asn-Cha-B5-Asp-Gln-iPrLys-Ala-Phe-Asn-PyrS2-4Thz-BztA-Hse-NH2]
14 | 4920 | CC(=O)N1CCC[C@]12CC=CCCCC1(CCCC=CCCCOC(=O)N3CC[C@@](C(=O)N[C@@H](Cc4ccsc4)C(=O)N[C@@H](Cc4csc5ccccc45)C(=O)N[C@@H](CCC(N)=O)C(N)=O)(C3)NC(=O)[C@H](CC(N)=O)NC(=O)[C@H](Cc3ccccc3)NC(=O)[C@H](C)NC(=O)[C@H](C)NC(=O)[C@H]([C@@H](C)O)NC(=O)[C@H](CC(N)=O)NC1=O)NC(=O)[C@H](CC(C)(C)C)NC(=O)[C@H](CN(CC(=O)O)CC(F)(F)F)NC2=O (stereo partly drawn) [I-2130, Ac-PL3-TfeGA-Npg-B5-Asn-Thr-Ala-Ala-Phe-Asn-PyrS2-3Thi-BztA-Gln-NH2]
